Read-outs that look alike come from different tables or passages of the source.
Tests used:
[1] = test system: S. aureus clinical isolates biofilms; experiment: Biofilm dispersal and prevention, crystal violet assay (Example 3); format: cell-based; settings: for dispersal of established biofilms (biofilm biomass): panel of clinical isolates of methicillin-resistant S. aureus (n=5), 5 mM, 24 h, FIGS. 8A, 8C; for biofilm dispersal in pre-screening of eight individual D-AAs: pre-formed biofilms of four clinical isolates, 0.001-50 mM, FIG. 7
Experimental: Like in Example 1, biofilm formation was assessed under static conditions using polystyrene 96-well plates (Corning, Inc.). Overnight bacterial cultures were diluted to an OD600 of 0.1 in TSB (˜10^7 CFU/mL), and 20 μL were added to individual wells filled with 180 μL of media and incubated at 37° C. for 48 h. To assess the biofilm dispersal activity of D-AAs, the culture medium from biofilms was removed after 48 h and 200 μL fresh medium containing either an individual D-AA or an equimolar mixture of D-AAs (1:1:1: D-Met:D-Pro:D-Trp) were added at the indicated concentrations. After treatment with D-AA(s) for 24 h, plates were gently washed with 1× phosphate buffered saline (PBS) to remove unattached cells, stained with 0.1% (w/v) crystal violet (Sigma Aldrich) for 10 min, rinsed with PBS, and then solubilized with 80% (v/v) ethanol. Biofilm biomass was determined by measuring the absorbance of solubilized stain at 570 nm using a microtiter plate reader. For assays measuring the ability of D-AA to block biofilm formation, cells were grown under biofilm conditions as above in the presence of media containing D-AAs. Representative images of the plates of CV-stained biofilms following treatment with D-AA prior to solubilization were taken using a digital camera. All assays were repeated in triplicate with a minimum of four technical replicates.

[2] = test system: S. aureus clinical isolate biofilms; experiment: Biofilm dispersal and prevention, crystal violet 96-well assay (Example 1); format: cell-based, Staphylococcus aureus; settings: 5 mM; for biofilm dispersal against panel of clinical isolates (biofilm biomass OD570): S. aureus clinical isolates, FIGS. 3A, 3C; for biofilm dispersal in pre-screening of eight D-AAs: pre-formed S. aureus biofilms, FIG. 1
Experimental: (§1) Biofilm formation was performed under static conditions in polystyrene 96-well plates (Corning, Inc., Corning, N.Y.). Briefly, overnight bacterial cultures were diluted to an OD600 of 0.1 in CA-MHB and 10 μL was added to individual wells filled with 190 μl of media and incubated at 37° C. for 48 h without shaking for biofilm growth. Following incubation, culture media was removed and 200 μL media containing individual D-AA at concentrations of 5 mM-1 nM was added. Plates were incubated for an additional 24 h at 37° C. After treatment, plates were gently washed with 1× phosphate buffered saline (PBS; pH 7.4) to remove non-adherent bacteria. Biofilms (i.e. attached cells) were then stained with 0.1% (w/v) crystal violet for 10 min, washed, followed by solubilization of crystal violet with 33% (v/v) acetic acid for 10 min. Biofilm biomass was determined by measuring the absorbance at 570 nm using a microtiter plate reader. For assays measuring the ability of D-AA to block biofilm formation, cells were grown under biofilm conditions as above in the presence of media containing D-AA. Three independent experiments with a minimum of 4 replicates were performed for each experimental assay. Representative images of the plates of CV stained biofilms following treatment with D-AA, prior to solubilization, were taken using a digital camera.

[3] = test system: P. aeruginosa clinical isolate biofilms; experiment: as above; format: cell-based, Pseudomonas aeruginosa; settings: 5 mM; for biofilm dispersal against panel of clinical isolates (biofilm biomass OD570): P. aeruginosa clinical isolates, FIGS. 3A, 3C; for biofilm dispersal in pre-screening of eight D-AAs: pre-formed P. aeruginosa biofilms, FIG. 1
Experimental: as §1

[4] = test system: planktonic S. aureus clinical strains (UAMS-1, 103-700); experiment: MIC by CLSI broth microdilution, planktonic bacteria; format: cell-based, Staphylococcus aureus; settings: for MIC: Staphylococcus aureus, 18 h
Experimental: Overnight cultures of bacterial strains were diluted to a final concentration of 5×10^5 CFU/ml in MHB-II. The resulting bacterial suspension was aliquoted (100 μL) into polystyrene round-bottom 96-well plates containing 100 μL of a 2× concentration of a previously serially diluted (1:2) antibiotic. Each antimicrobial tested was serially diluted 10 times. Following the addition of bacteria, the microtiter plate was covered and was incubated under stationary conditions at 37° C. in the presence of 1× antibiotics. […] MICs of antibiotics were determined in triplicate according to the Clinical and Laboratory Standards Institute (CLSI) broth microdilution as described by the performance standards for antimicrobial susceptibility testing (M100-S22, January 2012).

[5] = test system: biofilm derived S. aureus clinical strains (UAMS-1, 103-700); experiment: Biofilm susceptibility, Calgary Biofilm device (MBEC plates): MBIC and viable CFU; format: cell-based, Staphylococcus aureus; settings: for Biofilm (MBIC) 103-700: S. aureus 103-700 48 h biofilm; for Biofilm (MBIC) 103-700 / Biofilm (MBIC) UAMS-1: 24 h challenge, * = with 5 mM D-AA; for Biofilm (MBIC) UAMS-1: S. aureus UAMS-1 48 h biofilm; for % Decrease + SD in CFU, 8 μg/mL / % Decrease + SD in CFU, 16 μg/mL / % Decrease + SD in CFU, 32 μg/mL / % Decrease + SD in CFU, 64 μg/mL: S. aureus UAMS-1 biofilm; for % Decrease + SD in CFU, 8 μg/mL: antibiotic 8 μg/mL; for % Decrease + SD in CFU, 16 μg/mL: antibiotic 16 μg/mL; for % Decrease + SD in CFU, 32 μg/mL: antibiotic 32 μg/mL; for % Decrease + SD in CFU, 64 μg/mL: antibiotic 64 μg/mL, vs non-treated biofilms; for effect of the antimicrobial against biofilms when combined with the D-AA mixture: S. aureus biofilms, both strains, bacterial CFUs within biofilms
Experimental: Biofilm susceptibility to antimicrobial agents in the presence and absence of D-AA was determined using the Calgary Biofilm device. Briefly, biofilms from overnight cultures were established as above on individual pegs of the minimum biofilm eradication concentration (MBEC) plates (Innovotech, Canada) with agitation for 48 h at 37° C. Following incubation, the lid with pegs was removed from the incubation plate, washed by re-suspending pegs into plate with wells containing 200 μl of 1×PBS, then placed into a 96-well challenge plate containing pre-diluted antibiotics with or without an […] for an additional 24 h at 37° C. Following challenge plates were washed, and the attached viable cells on PEGs within the biofilm were determined by plating serial dilutions onto blood agar plates (Remel). Corresponding minimal biofilm inhibitory concentration (MBIC) was also determined by measuring the optical density in individual wells of the challenge plate at 600 nm. The lowest concentration of antibiotic for which an optical density of <0.100 was recorded as the MBIC. For each antibiotic, the MBIC was determined in the presence or absence of a mixture of D-AA (D-Phenylalanine, D-Methionine, and D-Tryptophan) at an equimolar concentration of 5 mM. Three independent experiments were performed for each of these assays, with a minimum of 3 replicates.

[6] = Release of D-AAs from PUR scaffolds in PBS (HPLC); format: physicochemical
Experimental: Also, kinetic release assays were performed on the PUR scaffolds by incorporating 10 wt % of a 1:1:1 mixture of D-Tr:D-Pro:D-Met incubated in PBS for up to 8 weeks. The medium was be sampled twice weekly and analyzed for D-AAs by HPLC.
PUR scaffolds incorporating 10 wt % of a 1:1:1 mixture of D-Met:D-Pro:D-Trp were incubated in PBS at 37° C. under static conditions for up to 8 weeks. This mixture was evaluated in vitro, in vivo and in the release kinetics tests to account for potential interactions between D-AAs during release. The medium was sampled on days 1, 2, 4, 7, 10, 14, 21, and 28 and analyzed for D-AAs by HPLC using a system equipped with a Waters 1525 binary pump and a 2487 Dual-Absorbance Detector at 200 nm. Samples of released D-AAs were eluted through an Atlantis HILIC Silica column (5 μm particle size, 4.6 mm diameter×250 mm length) using an isocratic mobile phase flowing at 1 mL/min. The mobile phase contained 2.5 mM potassium dihydrogen phosphate with pH=2.85 (A) and Acetonitrile (B) at a ratio of A25:B75. The column oven temperature was maintained at 30° C. Sample concentration was determined in reference to an external standard curve using the Waters Breeze system. Standard curves were prepared in the following concentration ranges: (1) 7.8 μg/mL to 1 mg/mL for D-Met and D-Pro and (2) […] to 100 μg/mL for D-Trp.

[7] = S. aureus 103-700, agents marked * in combination with equimolar 5 mM D-AA, read-out: Planktonic (MIC) 103-700
[8] = S. aureus UAMS-1, agents marked * in combination with equimolar 5 mM D-Phenylalanine, D-Tryptophan, D-Methionine, read-out: Planktonic (MIC) UAMS-1
[9] = S. aureus 103-700, agents marked * in combination with equimolar 5 mM D-AA

SMILES | MIC [4, 7] [µg/mL] | MIC [4, 8] [µg/mL] | cumulative release by day 28 ([6]; PUR scaffold with 10 wt % D-AA mixture, PBS 37° C.) [%] | burst release ([6]; day 1, PUR scaffold with 10 wt % 1:1:1 D-Met:D-Pro:D-Trp, PBS 37° C.) [%] | b parameter of Weibull model ([6]; fit of D-AA release data) | dispersal of established biofilms (biofilm biomass) [1] | biofilm dispersal in pre-screening of eight individual D-AAs [1] | biofilm dispersal against panel of clinical isolates (biofilm biomass OD570) [2] | biofilm dispersal in pre-screening of eight D-AAs [2] | biofilm dispersal against panel of clinical isolates (biofilm biomass OD570) [3] | biofilm dispersal in pre-screening of eight D-AAs [3] | Biofilm (MBIC) 103-700 [5] [µg/mL] | Biofilm (MBIC) UAMS-1 [5] [µg/mL] | % Decrease + SD in CFU, 8 μg/mL [5] [%] | % Decrease + SD in CFU, 16 μg/mL [5] [%] | % Decrease + SD in CFU, 32 μg/mL [5] [%] | % Decrease + SD in CFU, 64 μg/mL [5] [%] | effect of the antimicrobial against biofilms when combined with the D-AA mixture [5] | Planktonic (MIC) 103-700 [4, 9] [µg/mL] | Planktonic (MIC) UAMS-1 ([4]; S. aureus UAMS-1, agents marked * in combination with equimolar 5 mM D-Phenylalanine, D-Tryptophan, D-Methionine) [µg/mL]
N[C@H](Cc1ccccc1)C(=O)O [D-Phe, D-phenylalanine] |  |  |  |  |  | effective at dispersing established biofilms | effective at dispersing biofilms | capable of significantly dispersing biofilm formation | relatively more effective at dispersing biofilms | capable of significantly dispersing biofilm formation | relatively more effective at dispersing biofilms |  |  |  |  |  |  |  |  | 
Cc1onc(-c2ccccc2)c1C(=O)N[C@@H]1C(=O)N2[C@@H]1SC(C)(C)[C@@H]2C(=O)O [OXA, Oxacillin] | 8 | 1 |  |  |  |  |  |  |  |  |  | >64 | >64 |  |  |  |  |  | 8 | 
CN[C@H](CC(C)C)C(=O)N[C@H]1C(=O)N[C@@H](CC(N)=O)C(=O)N[C@H]2C(=O)N[C@H]3C(=O)N[C@H](C(=O)N[C@H](C(=O)O)c4cc(O)cc(O)c4-c4cc3ccc4O)[C@H](O)c3ccc(c(Cl)c3)Oc3cc2cc(c3O[C@@H]2O[C@H](CO)[C@@H](O)[C@H](O)[C@H]2O[C@H]2C[C@](C)(N)[C@H](O)[C@H](C)O2)Oc2ccc(cc2Cl)[C@H]1O [VAN, Vancomycin] |  |  |  |  |  |  |  |  |  |  |  | >64 | >64 | 1.5 ± 5.7 | 15.93 ± 6.2 | 31.90 ± 7.1 | 65.97 ± 5.3 | enhanced the effect | 1 | 0.5

Further lines, with some results ahead:

MIC [4, 7] [µg/mL] | MIC [4, 8] [µg/mL] | cumulative release by day 28 ([6]; PUR scaffold with 10 wt % D-AA mixture, PBS 37° C.) [%] | burst release ([6]; day 1, PUR scaffold with 10 wt % 1:1:1 D-Met:D-Pro:D-Trp, PBS 37° C.) [%] | b parameter of Weibull model ([6]; fit of D-AA release data) | SMILES | dispersal of established biofilms (biofilm biomass) [1] | biofilm dispersal in pre-screening of eight individual D-AAs [1] | biofilm dispersal against panel of clinical isolates (biofilm biomass OD570) [2] | biofilm dispersal in pre-screening of eight D-AAs [2] | biofilm dispersal against panel of clinical isolates (biofilm biomass OD570) [3] | biofilm dispersal in pre-screening of eight D-AAs [3] | Biofilm (MBIC) 103-700 [5] [µg/mL] | Biofilm (MBIC) UAMS-1 [5] [µg/mL] | % Decrease + SD in CFU, 8 μg/mL [5] [%] | % Decrease + SD in CFU, 16 μg/mL [5] [%] | % Decrease + SD in CFU, 32 μg/mL [5] [%] | % Decrease + SD in CFU, 64 μg/mL [5] [%] | effect of the antimicrobial against biofilms when combined with the D-AA mixture [5] | Planktonic (MIC) 103-700 [4, 9] [µg/mL] | Planktonic (MIC) UAMS-1 ([4]; S. aureus UAMS-1, agents marked * in combination with equimolar 5 mM D-Phenylalanine, D-Tryptophan, D-Methionine) [µg/mL]
0.5 | 0.5 |  |  |  | CO[C@H]1/C=C/O[C@@]2(C)Oc3c(C)c(O)c4c(O)c(c(/C=N/N5CCN(C)CC5)c(O)c4c3C2=O)NC(=O)/C(C)=C\C=C\[C@H](C)[C@H](O)[C@@H](C)[C@@H](O)[C@@H](C)[C@H](OC(C)=O)[C@@H]1C [RIF, Rifampin] |  |  |  |  |  |  | 32 | 32 | 16.87 ± 2.9 | 34.31 ± 5.4 | 70.70 ± 4.3 | 67.36 ± 1.2 | enhanced the effect |  | 
0.5 | 0.5 |  |  |  | CCC[C@@H]1C[C@@H](C(=O)N[C@@H]([C@H]2O[C@H](SC)[C@H](O)[C@@H](O)[C@H]2O)[C@H](C)Cl)N(C)C1 [CLI, Clindamycin] |  |  |  |  |  |  | >64 | 64 | 1.8 ± 1.0 | 9.3 ± 1.8 | 32.86 ± 4.3 | 66.0 ± 3.4 |  |  | 
 |  | 85 | 45 | 0.35 | O=C(O)[C@H]1CCCN1 [D-Pro, D-proline] | effective at dispersing established biofilms | effective at dispersing biofilms | capable of significantly dispersing biofilm formation | relatively more effective at dispersing biofilms | capable of significantly dispersing biofilm formation | relatively more effective at dispersing biofilms |  |  |  |  |  |  |  |  | 
16 | 0.5 |  |  |  | Cc1nnc(SCC2=C(C(=O)O)N3C(=O)[C@@H](NC(=O)Cn4cnnn4)[C@H]3SC2)s1 [CFZ, Cefazolin] |  |  |  |  |  |  | >128 | >128 |  |  |  |  |  |  | 

— patent US20150182667A1, “Composition with Biofilm Dispersal Agents” (Vanderbilt University, priority 2012, published 2015)
